{
  "source": "patent US12723096B2",
  "about": "“Regimens and methods of treating multiple sclerosis using ofatumumab” (Novartis AG, priority 2016, dated 2026)",
  "key": {"[1]": {"system": "patients with RMS", "conditions": "2 Phase 3 trials; over 2 years; cited from earlier work"}, "[2]": {"system": "relapsing MS patients", "conditions": "Phase 2; cited from earlier work"}, "[3]": {"system": "patients with RRMS", "conditions": "iv 100, 300, 700 mg; each dose level, both treatment periods; cited from earlier work"}, "[4]": {"conditions": "oncology studies; Arzerra US prescribing information 2016; cited from earlier work"}, "[5]": {"conditions": "in vivo", "experimental": "(§2) In this study, called MIRROR (MRI study In RRMS: evaluating ofatumumab Regimen), patients received ofatumumab 3 mg, 30 mg, or 60 mg every 12 weeks (q12w), or ofatumumab 60 mg every 4 weeks (q4w). To evaluate whether tolerability to the higher ofatumumab doses (30 mg and 60 mg) could be improved by the administration of an initial, lower, conditioning dose of ofatumumab (theoretically leading to the gradual lysis of B cells and potentially reducing cytokine release reactions), patients in the 30 mg q12w, 60 mg q12w and 60 mg q4w dose groups were randomized (1:1) to receive either placebo or a conditioning dose of ofatumumab 3 mg at week 0."}, "[6]": {"system": "CD19+ B cells", "experiment": "Study OMS112831/MIRROR: CD19 B-cell counts", "assay_type": "in vivo, human", "experimental": "as §2"}, "[7]": {"system": "circulating B-cell", "conditions": "iv 100, 300, 700 mg; each dose level; cited from earlier work"}, "[8]": {"system": "relapsing-remitting multiple sclerosis (RRMS)", "experiment": "Study OMS112831/MIRROR, repeat-dose SC ofatumumab in RRMS: brain MRI lesions and relapses", "assay_type": "in vivo, human", "conditions": "for reduction of mean cumulative number of new gadolinium-enhancing lesions vs placebo: p<0.001", "description": "The primary endpoint was the cumulative number of new gadolinium-enhancing lesions during weeks 0-12 on brain magnetic resonance imaging (MRI). Other endpoints included • (i) the cumulative number of new Gd-enhancing lesions at other time points; • (ii) (ii) the total volume at weeks 12 and 24 of a) new Gd-enhancing lesions, b) new/newly enlarged T2 lesions, and c) T1 hypointense lesions; • (iii) the proportion of patients free from relapses; • (iv) Expanded Disability Status Scale (EDSS) scores; • (v) Multiple Sclerosis Functional Composite (MSFC) and their component scores; • (vi) Modified Fatigue Impact Scale (MFIS); and • (vii) Evaluation of the use of the initial conditioning ofatumumab dose."}, "[9]": {"system": "peripheral B-cell", "experiment": "Phase I/II study of single low-dose SC ofatumumab in rheumatoid arthritis: peripheral B-cell depletion", "assay_type": "in vivo, human", "conditions": "RA patients on stable MTX; single SC doses of 30, 60 or 100 mg", "protocol": "(§1) Ofatumumab targets a novel epitope on the CD20 molecule distinct from rituximab (RTX), a chimeric anti-CD20 MAb. RTX studies have utilized high intravenous (IV) doses (two 1000 mg doses 14 days apart) leading to very rapid B cell lysis resulting in infusion reactions despite the use of IV corticosteroid (CS) premedication. The first study involving ofatumumab was a phase I/II study to investigate the use of a low dose subcutaneous (SC) formulation of ofatumumab in rheumatoid arthritis (RA), administered without CS, potentially providing more controlled B cell depletion than that seen in the RTX studies. The primary objective was to investigate the safety and tolerability of a single SC dose of ofatumumab in rheumatoid arthritis (RA) patients on background methotrexate (MTX). Secondary objectives included investigating the minimum dose to achieve target peripheral B-cell depletion, the pharmacodynamic dose-response curve and B-cell repletion profile. […] Single doses up to 60 mg were tolerated and may provide a method of achieving B-cell depletion without additional CS premedication. This study established that the duration of peripheral B cell depletion increases with dose of ofatumumab (ofatumumab), an anti-CD20 antibody."}, "[10]": {"experiment": "Phase I/II study of single low-dose SC ofatumumab in rheumatoid arthritis: safety and tolerability", "assay_type": "in vivo, human", "conditions": "RA patients; single doses up to 60 mg, without CS premedication", "protocol": "as §1"}},
  "data": [
    {"substance": "ocrelizumab", "values": [
      {"measurement": "relapse rates vs interferon beta 1a", "setting": "[1]", "value": "significantly reduced"},
      {"measurement": "MRI-measured inflammatory activity", "setting": "[2]", "value": "marked reductions"}
    ]},
    {"substance": "ofatumumab", "values": [
      {"measurement": "reduction in MRI lesion activity versus placebo", "setting": "[3]", "value": "up to 96%"},
      {"measurement": "incidence of anti-drug antibodies (ADA) against ofatumumab", "setting": "[4]", "value": "< 1 % of patients"},
      {"measurement": "adverse events versus lower dose regimens of 3 or 30 mg q12 weeks", "setting": "[5]", "value": "more adverse events"},
      {"measurement": "injection-related reactions (most commonly reported AE)", "setting": "[5]", "value": 52, "unit": "%"},
      {"measurement": "injection-related reactions mild/moderate in severity", "setting": "[5]", "value": "97 % of the events"},
      {"measurement": "opportunistic infections", "setting": "[5]", "value": "no cases"},
      {"measurement": "overall safety and tolerability", "setting": "[5]", "value": "safe and well tolerated"},
      {"measurement": "depletion of CD19 B-cells", "setting": "[6]; 3, 30, 60 mg q12w, 60 mg q4w SC", "value": "dose-dependently"},
      {"measurement": "B-cell repopulation once dosing ceased", "setting": "[6]; all treatments, over 60 weeks of follow up, compared to high-dose i.v. anti-CD20 antibodies", "value": "relatively rapid B-cell repopulation"},
      {"measurement": "B-cell repletion during the inter-dosing interval", "setting": "[6]; monthly dosing (60 mg q4 weeks)", "value": "no signs of B-cell repletion"},
      {"measurement": "circulating B-cell counts", "setting": "[7]", "value": "profound reduction"},
      {"measurement": "MRI effect", "setting": "[8]; 3 mg every 12 weeks", "value": "clear MRI effect"},
      {"measurement": "MRI efficacy", "setting": "[8]; 30 mg every 12 weeks", "value": "very close to maximal MRI efficacy"},
      {"measurement": "added efficacy compared with 60 mg every 12 weeks", "setting": "[8]; 60 mg every 4 weeks", "value": "didn't add any efficacy"},
      {"measurement": "reduction of cumulative new/newly enlarged T2 lesions vs placebo", "setting": "[8]; weeks 0-12", "value": "60-72%"},
      {"measurement": "patients who experienced a relapse", "setting": "[8]; weeks 0-12, 17/164 patients", "value": 10, "unit": "%"},
      {"measurement": "reduction of mean cumulative number of new gadolinium-enhancing lesions vs placebo", "setting": "[8]; weeks 0-12", "value": 65, "unit": "%"},
      {"measurement": "reduction of mean cumulative number of new gadolinium-enhancing lesions vs placebo", "setting": "[8]; weeks 4-12, post hoc analysis, cumulative ofatumumab doses 2::30 mg", "value": "≥ 90", "unit": "%"},
      {"measurement": "peripheral B-cell depletion", "setting": "[9]", "value": "profound and sustained peripheral B-cell depletion"},
      {"measurement": "tolerability of single SC dose", "setting": "[10]", "value": "tolerated"}
    ]},
    {"substance": "rituximab", "values": [
      {"measurement": "MRI-measured inflammatory activity", "setting": "[2]", "value": "marked reductions"}
    ]}
  ]
}
